Assay results taken from US20170152226A1, “FUNCTIONALISED AND SUBSTITUTED INDOLES AS ANTI-CANCER AGENTS” (Novogen Ltd., priority 2014, published 2017).
Read-outs that look alike come from different tables or passages of the source.

Columns and labels:
Assay in all cases: Anti-proliferative activity, cell-titre luminescent viability assay
Type in all cases: cell-based
SK-Mel-28 = conditions: Homo sapiens, SK-MEL-28, 72 hours, read-out: IC50 Melanoma SK-Mel-28
Experimental: (§1) The ability of compounds 3501-3540 and 3542-3545 to inhibit the proliferation of cancer cells representative of neuroblastoma, melanoma, prostate cancer, colorectal cancer, non-small cell lung carcinoma, and triple negative breast cancer was assessed. Briefly, a pre-determined number of cells as calculated from cell growth assays for each of the cell lines employed were seeded into their respective culture medium (using ATCC culture parameters—http://www.atcc.org) and cultured for 24 hours at 37° C. and 5% CO2 in 96-well culture plates. Once attached, each cell line was then exposed to increasing concentrations of each respective analogue (0.03, 0.3, 3 and 30 μM for compounds in Table 1; 0.1, 0.3, 1, 3, 10 and 30 μM for compounds in Table 2), cultured for a further 72 hours and exposed to cell-titre luminescent reagent (100 μL/well) for a further 30 min) to assess for cell viability. Luminescence was captured using an EnVision multilabel reader and the data for each analogue concentration was normalized, as a percentage, to the no treatment control. For compounds 3501, 3503, 3505-08, 3512-18, 3520, 3522-24 and 3531-36, semi-log plots of Percent of Control versus concentration were prepared and IC50 determined using linear regression analysis. For compounds 3502, 3504, 3509-11, 3519, 3521, 3525-30, 3537-40 and 3542-45, cell viability was normalized to control (vehicle alone) and dose-response curves, and half maximal effective concentration (EC50) values were determined using Graph Pad Prism 6 (nonlinear regression sigmoidal dose-response variable slope).

PC3 = conditions: Homo sapiens, read-out: IC50 Prostate PC3
Experimental: as §1

SK-N-SH = conditions: Homo sapiens, SK-N-SH, read-out: IC50 Neuroblastoma SK-N-SH
Experimental: as §1

A549 = conditions: Homo sapiens, read-out: IC50 Lung (NSLC) A549
Experimental: as §1

CaCo2 = conditions: read-out: IC50 Colorectal CaCo2
Experimental: as §1

DU145 = conditions: Homo sapiens, read-out: IC50 Prostate DU145
Experimental: as §1

MDA-MB-231 = conditions: Homo sapiens, read-out: IC50 Breast MDA-MB-231
Experimental: as §1

[1] = 0.03, 0.3, 3 and 30 μM, linear regression of semi-log plots
[2] = PC-3, 72 h, 0.03, 0.3, 3 and 30 μM, linear regression of semi-log plots
[3] = 72 h, 0.03, 0.3, 3 and 30 μM, linear regression of semi-log plots
[4] = A549, 72 h, 0.03, 0.3, 3 and 30 μM, linear regression of semi-log plots
[5] = Homo sapiens, Caco-2, 72 h, 0.03, 0.3, 3 and 30 μM, linear regression of semi-log plots
[6] = DU-145, 72 h, 0.03, 0.3, 3 and 30 μM, linear regression of semi-log plots
[7] = MDA-MB-231, 72 h, 0.03, 0.3, 3 and 30 μM, linear regression of semi-log plots
[8] = 0.1, 0.3, 1, 3, 10 and 30 μM, nonlinear regression sigmoidal dose-response (EC50)
[9] = PC-3, 72 h, 0.1, 0.3, 1, 3, 10 and 30 μM, nonlinear regression sigmoidal dose-response (EC50)
[10] = 72 h, 0.1, 0.3, 1, 3, 10 and 30 μM, nonlinear regression sigmoidal dose-response (EC50)
[11] = A549, 72 h, 0.1, 0.3, 1, 3, 10 and 30 μM, nonlinear regression sigmoidal dose-response (EC50)
[12] = Homo sapiens, Caco-2, 72 h, 0.1, 0.3, 1, 3, 10 and 30 μM, nonlinear regression sigmoidal dose-response (EC50)
[13] = DU-145, 72 h, 0.1, 0.3, 1, 3, 10 and 30 μM, nonlinear regression sigmoidal dose-response (EC50)
[14] = MDA-MB-231, 72 h, 0.1, 0.3, 1, 3, 10 and 30 μM, nonlinear regression sigmoidal dose-response (EC50)

IC50 (SK-Mel-28; [1]) [µM] | IC50 (PC3; [2]) [µM] | IC50 (SK-N-SH; [3]) [µM] | IC50 (A549; [4]) [µM] | IC50 (CaCo2; [5]) [µM] | IC50 (DU145; [6]) [µM] | IC50 (MDA-MB-231; [7]) [µM] | IC50 (SK-Mel-28; [8]) [µM] | IC50 (PC3; [9]) [µM] | IC50 (SK-N-SH; [10]) [µM] | IC50 (A549; [11]) [µM] | IC50 (CaCo2; [12]) [µM] | IC50 (DU145; [13]) [µM] | IC50 (MDA-MB-231; [14]) [µM] | IC50 (CaCo2; 72 hours, 0.03, 0.3, 3 and 30 μM, linear regression of semi-log plots) [µM] | Compound
3.3 | 3.7 | 2.8 | 2.7 | 3 | 3.8 | 2.6 |  |  |  |  |  |  |  |  | COc1cccc(CCN2CCN(C(=O)c3ccc(Nc4ccc5c(c4)c(C)c(C)n5CCCN4CCN(C)CC4)cc3)CC2)c1 [Compound 3535, (4-((2,3-dimethyl-1-(3-(4-methylpiperazin-1-yl)propyl)-1H-indol-5-yl)amino)phenyl)(4-(3-methoxyphenethyl)piperazin-1-yl)methanone]
1.3 | 2.1 | 3.7 | 3 | 2.7 | 3.2 | 1.9 |  |  |  |  |  |  |  |  | Cc1c(C)n(CCCN2CCN(C)CC2)c2ccc(Cc3cccc(C(=O)N4CCN(CCc5ccccc5)CC4)c3)cc12 [Compound 3506, (3-((2,3-dimethyl-1-(3-(4-methylpiperazin-1-yl)propyl)-1H-indol-5-yl)methyl)phenyl)(4-phenethylpiperazin-1-yl)methanone]
1 | 2.5 | 2 | 1.6 | 3 | 2.4 | 1.3 |  |  |  |  |  |  |  |  | Cc1c(C)n(CCCN2CCN(C)CC2)c2ccc(Cc3ccc(C(=O)N4CCN(CCc5cccc(F)c5)CC4)cc3)cc12 [Compound 3522, (4-((2,3-dimethyl-1-(3-(4-methylpiperazin-1-yl)propyl)-1H-indol-5-yl)methyl)phenyl)(4-(3-fluorophenethyl)piperazin-1-yl)methanone]
 |  |  |  |  |  |  | 4.8 | 8 | 4.2 | 3.6 | 5 | 5.8 | 4.8 |  | Cc1c(C)n(CCCN2CCN(C)CC2)c2ccc(Cc3cccc(C(=O)N4CCN(CCc5ccc6ccccc6c5)CC4)c3)cc12 [Compound 3537, (3-((2,3-dimethyl-1-(3-(4-methylpiperazin-1-yl)propyl)-1H-indol-5-yl)methyl)phenyl)(4-(2-(naphthalen-2-yl)ethyl)piperazin-1-yl)methanone]
 |  |  |  |  |  |  | 2.4 | 4.8 | 2 | 4.4 | 4.2 | 4.2 | 4.5 |  | COc1cccc(CCN2CCN(C(=O)c3ccc(Oc4ccc5c(c4)c(C)c(C)n5CCCN4CCN(C)CC4)cc3)CC2)c1 [Compound 3529]
2.4 | 4.1 | 2.3 | 3 | 2.5 | 3.2 | 2.1 |  |  |  |  |  |  |  |  | Cc1c(C)n(CCCN2CCN(C)CC2)c2ccc(Nc3cccc(C(=O)N4CCN(CCc5ccccc5)CC4)c3)cc12 [Compound 3518, (3-((2,3-dimethyl-1-(3-(4-methylpiperazin-1-yl)propyl)-1H-indol-5-yl)amino)phenyl)(4-phenethylpiperazin-1-yl)methanone]
2.7 | 4.2 | 2.3 | 2.2 |  | 4 | 1.9 |  |  |  |  |  |  |  | 3.1 | COc1ccc(CCN2CCN(C(=O)c3ccc(Nc4ccc5c(c4)c(C)c(C)n5CCCN4CCN(C)CC4)cc3)CC2)cc1 [Compound 3532, (4-((2,3-dimethyl-1-(3-(4-methylpiperazin-1-yl)propyl)-1H-indol-5-yl)amino)phenyl)(4-(4-methoxyphenethyl)piperazin-1-yl)methanone]
2.7 | 4.9 | 3.4 | 4.3 | 4.6 | 4 | 3.3 |  |  |  |  |  |  |  |  | Cc1c(C)n(CCCN2CCN(C)CC2)c2ccc(Nc3cccc(C(=O)N4CCN(CCc5ccc6c(c5)OCO6)CC4)c3)cc12 [Compound 3515, (4-(2-(benzo[d][1,3]dioxol-5-yl)ethyl)piperazin-1-yl)(3-((2,3-dimethyl-1-(3-(4-methylpiperazin-1-yl)propyl)-1H-indol-5-yl)amino)phenyl)methanone]
 |  |  |  |  |  |  | 2.6 | 5.4 | 4.6 | 5 | 5.8 | 4.9 | 4.9 |  | COc1ccc(CCN2CCN(C(=O)c3cccc(Cc4ccc5c(c4)c(C)c(C)n5CCCN4CCN(C)CC4)c3)CC2)cc1 [Compound 3502, (3-((2,3-dimethyl-1-(3-(4-methylpiperazin-1-yl)propyl)-1H-indol-5-yl)methyl)phenyl)(4-(4-methoxyphenethyl)piperazin-1-yl)methanone]
 |  |  |  |  |  |  | 2.2 | 3 | 1.7 | 3.9 | 4.6 | 3.9 | 2.8 |  | Cc1c(C)n(CCCN2CCN(C)CC2)c2ccc(Cc3cccc(C(=O)N4CCN(CCc5cccc6ccccc56)CC4)c3)cc12 [Compound 3539, (3-((2,3-dimethyl-1-(3-(4-methylpiperazin-1-yl)propyl)-1H-indol-5-yl)methyl)phenyl)(4-(2-(naphthalen-1-yl)ethyl)piperazin-1-yl)methanone]
 |  |  |  |  |  |  | 4.1 | 7.2 | 3.2 | 5 | 4.1 | 4.5 | 4.8 |  | Cc1c(C)n(CCCN2CCN(C)CC2)c2ccc(Oc3ccc(C(=O)N4CCN(CCc5ccc6c(c5)OCO6)CC4)cc3)cc12 [Compound 3527, (4-(2-(benzo[d][1,3]dioxol-5-yl)ethyl)piperazin-1-yl)(4-((2,3-dimethyl-1-(3-(4-methylpiperazin-1-yl)propyl)-1H-indol-5-yl)oxy)phenyl)methanone]
1.3 | 3.5 | 1.3 | 1.4 | 3.1 | 3.8 | 1.3 |  |  |  |  |  |  |  |  | COc1ccc(CCN2CCN(C(=O)c3cccc(Nc4ccc5c(c4)c(C)c(C)n5CCCN4CCN(C)CC4)c3)CC2)cc1 [Compound 3514, (3-((2,3-dimethyl-1-(3-(4-methylpiperazin-1-yl)propyl)-1H-indol-5-yl)amino)phenyl)(4-(4-methoxyphenethyl)piperazin-1-yl)methanone]
 |  |  |  |  |  |  | 3.2 | 3 | 2.1 | 4.2 | 3.1 | 3.6 | 2.3 |  | COc1ccc2cccc(CCN3CCN(C(=O)c4ccc(Cc5ccc6c(c5)c(C)c(C)n6CCCN5CCN(C)CC5)cc4)CC3)c2c1 [Compound 3545, (4-((2,3-dimethyl-1-(3-(4-methylpiperazin-1-yl)propyl)-1H-indol-5-yl)methyl)phenyl)(4-(2-(7-methoxynaphthalen-1-yl)ethyl)piperazin-1-yl)methanone]
 |  |  |  |  |  |  | 4.8 | 15.6 | 4.8 | 3 | 5.3 | 9 | 13.4 |  | COc1ccc(CCN2CCN(C(=O)c3ccc(Oc4ccc5c(c4)c(C)c(C)n5CCCN4CCN(C)CC4)cc3)CC2)cc1 [Compound 3526]
